From article PMC4432287, “NsrR from Streptomyces coelicolor Is a Nitric Oxide-sensing [4Fe-4S] Cluster Protein with a Specialized Regulatory Function” (The Journal of Biological Chemistry, 2015)

Target: T1, ScNsrR ([4Fe-4S] NsrR) (Streptomyces coelicolor, UniProt Q9L132)
T1 construct: untagged native full-length protein from pNsrR, E. coli BL21λDE3, anaerobic heparin purification, homodimer (~37 kDa by gel filtration); C-terminal His6 form (apo 17,474 Da) used for native MS
Experiment: CD titration at […] nm, single-site fit
Type: binding

T1 sequence (Q9L132 whole entry): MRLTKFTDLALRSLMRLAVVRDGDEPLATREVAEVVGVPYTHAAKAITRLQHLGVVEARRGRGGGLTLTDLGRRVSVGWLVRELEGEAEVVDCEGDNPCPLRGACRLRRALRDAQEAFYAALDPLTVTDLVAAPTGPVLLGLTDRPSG

OC(CS)C(O)CS (stereo not drawn) [dithiothreitol]
Kd: 9.9 mM

CCS [thioethane]
Kd: ~1.9 mM

OCCS [β-mercaptoethanol]
Kd: ~3.8 mM
